This assay deals with Cyclin-A2/Cyclin-dependent kinase 2 (Homo sapiens, UniProt P24941). The assay is described as follows: CDK Inhibition Assay. To be noted: pH 7.5; 22 °C. Here is the method:
In vitro kinase assay using purified CDK2/Cyclin A was incubated at room temperature with substrate, and test compounds in the presence of 100 uM ATP/ [gamma-33P] ATP. Assays were performed in 96-well polypropylene plates. 33P incorporation into substrate was measured using a scintillation counter.

Molecules are shown by their SMILES.

`CC(C)c1cnn2c(Nc3ccc(S(C)(=O)=O)cc3)cc(Cl)nc12` [5-chloro-N-(4-methanesulfonylphenyl)-3-(propan-2-yl)pyrazolo[1,5-a]pyrimidin-7-amine]: 230 nM corresponded to half-maximal inhibition (IC50).

Values taken from BindingDB's records for doi:10.1016/j.bmcl.2004.12.073 (Vernalis (R&D), 2005).
